Measured values published in US7334580B2, “Methods, devices and formulations for targeted endobronchial therapy” (priority 2003, dated 2008).

Assay: Antibiotic aerosol delivery with nebulizer at distal Y position, three nebulizers
Parameters: unit not given here
Details: T-BIRD, continuous
Text: The inhaled mass filter 1040 allows one to do accurate measurements of what delivery amounts are actually reaching the patient 10.
In a second experiment, the arrangements of FIGS. 15A and 15B were used with a single commercially available ventilator (the T-Bird ventilator) together with three different commercially available nebulizers. The nebulizer actuation was examined in the “continuous” mode. The humidity feature for these ventilators was examined by performing the test both when the feature is active and when it is off. An expiratory line filter was also used (not shown). Clearly, the Portex nebulizer performed poorly under these conditions.

[1] = AEROGEN nebulizer, humidity OFF
[2] = AEROTECH nebulizer, humidity OFF
[3] = AEROTECH nebulizer, humidity ON

CN[C@H](CC(C)C)C(=O)N[C@H]1C(=O)N[C@@H](CC(N)=O)C(=O)N[C@H]2C(=O)N[C@H]3C(=O)N[C@H](C(=O)N[C@H](C(=O)O)c4cc(O)cc(O)c4-c4cc3ccc4O)[C@H](O)c3ccc(c(Cl)c3)Oc3cc2cc(c3O[C@@H]2O[C@H](CO)[C@@H](O)[C@H](O)[C@H]2O[C@H]2C[C@](C)(N)[C@H](O)[C@H](C)O2)Oc2ccc(cc2Cl)[C@H]1O [VANCOMYCIN, vancomycin]
MMAD [1]: 2 | MMAD (AEROGEN nebulizer, humidity ON): 2 | MMAD [2]: 1.7 | MMAD [3]: 1.1 | MMAD (PORTEX nebulizer, humidity ON): 1.1

gentamicin
MMAD [1]: 1.1 | MMAD (AEROGEN nebulizer, humidity ON): 1.2 | MMAD [2]: 0.9 | MMAD [3]: 1.3 | MMAD (PORTEX nebulizer, humidity ON): 0.9
